Data published in patent US10273238B2, “Indazolones as modulators of TNF signaling” (AbbVie Inc., priority 2015, dated 2019).

target: TNFα (Homo sapiens, UniProt P01375); assay: TNFα FP Competitive Binding Assay; settings: 20 nM TNFα trimer, 1 nM OregonGreen488 probe, read-out: TNF IC50
Experimental: TNFα FP Competitive Binding Assay
Prepare 1× Assay Buffer (Water with 47 mil HEPES, 47 mM NaCl, 0.9 mM EDTA, 0.0071% Triton X-100) by adding 25 mL of 1 M HEPES, 5 mL of 5 M NaCl, 1 mL of 0.5 M EDTA, and 375 μL of a 10% Triton X-100 stock to a fresh 500 mL bottle of water.
Prepare fresh Assay Mixture containing 20 nM TNFα trimer (60 nM protein) and 1 nM 2′,7′-difluoro-3′,6′-dihydroxy-N-(2-(2-(2-((4-(isoquinolin-8-yl)-3-(4-(isoquinolin-8-yl)phenethoxy)benzyl)oxy)ethoxy)ethoxy)ethyl)-3-oxo-3H- spiro[isobenzofuran-1,9′-xanthene]-5-carboxamide probe in 1× Assay Buffer.
Top concentration of compounds, 10 mM in DMSO, dispensed in rows A-O in columns 1 and 13. Compounds are serially diluted 1:3 with DMSO in columns 2-12 or 14-24 using a 16-channel Matrix pipettor. Plates stored at −20° C.
Top concentration, 5 mM in DMSO, of compounds placed in rows A-O in columns 1 and 13.
Compounds are serially diluted 1:3 with DMSO in columns 2-12 or 14-24. Compound solutions are dispensed into replicate assay plates at 410 nL per well. Plates stored at 4° C.
TNFα FP Competitive Binding Assay Protocol • 1. Compound plates warmed to rt. • 2. Fresh Assay Mixture is prepared. • 3. Assay Mixture (20 μL) is dispensed each well of 384 assay plates using a Thermo Multidrop Combi or 16-channel Matrix pipettor. If Manual 12-point 1:3 Dilution Plates are to be tested, Assay Mix is dispensed into empty plates. Discovery Preps 12-point 1:3 Dilution Plates already contain 410 nL compound solution in DMSO. • 4. For Manual 12-point 1:3 Dilution Plates, 0.7 μL is manually transferred using a 16-channel Matrix pipettor to replicate assay plates containing 20 μL Assay Mixture for a final top compound concentration of […] (3.4% DMSO). • 5. For Discovery Preps 12-point 1:3 Dilution Plates, 20 μL Assay Mixture added the 410 nL compound solution already in the plates yields a final top compound concentration of 100 μM (2.0% DMSO). • 6. Background subtraction controls are wells P1-P8 containing only Assay Buffer. The low % inhibition controls are wells P9-P16 containing only Assay Mix. The high % inhibition are wells P17-P24 containing only 1 nM 2′,7′-difluoro-3′,6′-dihydroxy-N-(2-(2-(2-((4-(isoquinolin-8-yl)-3-(4-(isoquinolin-8-yl)phenethoxy)benzyl)oxy)ethoxy)ethoxy)ethyl)-3-oxo-3H-spiro[isobenzofuran-1,9′-xanthene]-5-carboxamide probe in 1× Assay Buffer. • 7. Plates are incubated at rt for 18-24 h in […] (CO2 is off). • 8. Prior to reading the assay, the plates are placed in a dark cabinet to equilibrate at rt for one hour. • 9. Background-subtracted fluorescence polarization (mP) is measured using a PerkinElmer Envision plate reader. • 10. Raw data is entered into Assay Explorer and dose-response curves are generated using a variable slope curve.

Chain of TNFα (P01375 77-233 limits assumed): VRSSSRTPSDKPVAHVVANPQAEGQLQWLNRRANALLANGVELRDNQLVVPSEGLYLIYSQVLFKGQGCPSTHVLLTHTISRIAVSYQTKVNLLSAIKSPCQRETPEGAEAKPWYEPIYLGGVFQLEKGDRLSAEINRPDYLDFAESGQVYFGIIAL

IC50 [nM]	SMILES
< 1000	Cc1ccc(OC(F)F)c([C@H]2CCn3c(=O)c4ccc(-c5cnc(N6CCN7C(=O)NC[C@H]7C6)nc5)cc4n32)c1 (single isomer, unassigned) [Example 15.1]
< 1000	CC(=O)N1CCN(c2ncc(-c3ccc4c(=O)n5n(c4c3)[C@@H](c3ccccc3OC(F)F)CC5)cn2)C[C@H]1C (single isomer, unassigned) [Example 6.3]
> 10000	CC(C)n1nccc1C1CCn2c(=O)c3ccc(-c4cnc(N5CCOCC5)nc4)cc3n21 (stereo not shown) [Example 8.5, 3-(1-isopropyl-1H-pyrazol-5-yl)-6-(2-morpholinopyrimidin-5-yl)-2,3-dihydropyrazolo[1,2-a]indazol-9(1H)-one]
1000 to 10000	O=C1C[C@H](CNc2ncc(-c3ccc4c(=O)n5n(c4c3)[C@@H](c3ccccc3OC(F)F)CC5)cn2)CN1 (single isomer, unassigned) [Example 4.5]
1000 to 10000	O=C1C[C@H](CNc2ncc(-c3ccc4c(=O)n5n(c4c3)[C@H](c3ccccc3OC(F)F)CC5)cn2)CN1 (single isomer, unassigned) [Example 4.6]
1000 to 10000	O=c1c2ccc(-c3cnc(N4CCC(O)CC4)nc3)cc2n2n1CCCC2c1ccccc1OC(F)F (stereo not shown) [Example 7.2, 6-(2-(difluoromethoxy)phenyl)-3-(2-(4-hydroxypiperidin-1-yl)pyrimidin-5-yl)-8,9-dihydro-6H-pyridazino[1,2-a]indazol-11(7H)-one]
1000 to 10000	COc1ccc(C#N)cc1C1CCn2c(=O)c3ccc(-c4cnc(N5CCOCC5)nc4)cc3n21 (stereo not shown) [Example 8.3, 4-methoxy-3-(6-(2-morpholinopyrimidin-5-yl)-9-oxo-1,2,3,9-tetrahydropyrazolo[1,2-a]indazol-3-yl)benzonitrile]
1000 to 10000	CC(C)(O)c1ncc(-c2ccc3c(c2)[C@H]2[C@@H](c4ccccc4OC(F)F)CCN2C3=O)cn1 (single isomer, unassigned) [Example 10.2]
< 1000	CC(=O)N1CCN(c2ncc(-c3ccc4c(=O)n5n(c4c3)[C@@H](c3ccccc3OC(F)F)CC5)cn2)[C@H](C)C1 [Example 6.5, (R)-6-(2-((R)-4-acetyl-2-methylpiperazin-1-yl)pyrimidin-5-yl)-3-(2-(difluoromethoxy)phenyl)-2,3-dihydropyrazolo[1,2-a]indazol-9(1H)-one]
1000 to 10000	O=c1c2ccc(-c3cnc(N4CCOCC4)nc3)cc2n2n1CCC2c1ccccc1 (stereo not shown) [Example 8.2, 6-(2-morpholinopyrimidin-5-yl)-3-phenyl-2,3-dihydropyrazolo[1,2-a]indazol-9(1H)-one]
1000 to 10000	COC[C@H]1CCCN1c1ncc(-c2ccc3c(=O)n4n(c3c2)[C@H](c2ccccc2OC(F)F)CC4)cn1 (single isomer, unassigned) [Example 1.4]
< 1000	Cc1ccc(OC(F)F)c([C@@H]2CCn3c(=O)c4ccc(-c5cnc(N6CCN7C(=O)NC[C@H]7C6)nc5)cc4n32)c1 (single isomer, unassigned) [Example 14.1]
1000 to 10000	COc1c(C#N)cccc1C1CCn2c(=O)c3ccc(-c4cnc(N5CCOCC5)nc4)cc3n21 (stereo not shown) [Example 8.4, 2-methoxy-3-(6-(2-morpholinopyrimidin-5-yl)-9-oxo-1,2,3,9-tetrahydropyrazolo[1,2-a]indazol-3-yl)benzonitrile]
< 1000	O=C1NC[C@@H]2CN(c3ncc(-c4ccc5c(=O)n6n(c5c4)[C@H](c4ccccc4OC(F)F)CC6)cn3)CCN12 (single isomer, unassigned) [Example 5.2]
< 1000	O=c1c2ccc(-c3cnc(N4CCC(O)CC4)nc3)cc2n2n1CCC2c1ccccc1OC(F)F (stereo not shown) [Example 4.2, 3-(2-(difluoromethoxy)phenyl)-6-(2-(4-hydroxypiperidin-1-yl)pyrimidin-5-yl)-2,3-dihydropyrazolo[1,2-c]indazol-9(1H)-one]
1000 to 10000	O=C1C[C@@H](CNc2ncc(-c3ccc4c(=O)n5n(c4c3)[C@@H](c3ccccc3OC(F)F)CC5)cn2)CN1 (single isomer, unassigned) [Example 4.3]
